Data: patent US20110160303A1, “N-ALKYLCARBONYL-AMINO ACID ESTER AND N-ALKYLCARBONYL-AMINO LACTONE COMPOUNDS AND THEIR USE” (Edward Tak WEI, priority 2005, published 2011)
“Also recorded” adds a separate entry of the source. One block for each compound: values may come before it.

Assays:
tongue [1] = conditions: Watson et al., filter paper on tongue, 6 subjects; cited from earlier work
oral cavity = experiment: Oral cavity test, substance placed on dorsal surface of the tongue; assay type: in vivo, human
Method: The subject is instructed to close and hold the substance in the mouth for at least 10 seconds and not to swallow. The description of sensations is then recorded at 5 minute intervals.
The compounds of Formula (1) and (2) are white crystalline solids at room temperatures. These compounds were tested as such, or mixed 1:1 with powdered or granulated sugar. The test substances were applied at 1 to 5 mg on the mid-point of the dorsal surface of the tongue using a metal spatula or a plastic applicator. After depositing the test substance on the tongue, the subject was instructed to keep the mouth closed and allow the fluids of the mouth to inter-mix with the test substance and to distribute it to the back of the mouth (oropharynx). The presence and duration of subjective sensations from the mouth was then noted.
In normal subjects, the effects of the D-Ala methyl and ethyl ester compounds falling within Formula (1) ((R)-2-[((1R,2S,5R)-2-isopropyl-5-methyl-cyclohexanecarbonyl)-amino]-propionic acid methyl or ethyl ester)) were examined. Three doses of 1, 2 and 4 mg per application were examined and compared to a similar dose of the L-Ala methyl or ester analog ((S)-2-[((1R,2S,5R)-2-isopropyl-5-methyl-cyclohexanecarbonyl)-amino]-propionic acid methyl or ethyl ester). At the 2 or 4 mg dose, all compounds produced pleasant and robust cooling sensations on the tongue, extending down to the back of throat, and lasted for about 30 minutes and longer. The onset effect was usually within 30 seconds of application.

periorbital skin = experiment: Irritancy near the eyes, ointment applied to periorbital skin; assay type: in vivo, human; conditions: Table 1 summary
Description: The ointment is also applied to the periorbital skin (upper and lower eyelids and on skin adjacent to the lateral canthus) for tests of irritancy near the eyes, and the subject is asked if irritation is present or absent. The intensity of the eye sensation is not rated. For tests of irritancy near the eyes, the ointment was applied to the periorbital skin (upper and lower eyelids and on skin adjacent to the lateral canthus), and the subject asked if irritation is present or absent. The intensity of the eye sensation is not rated, but just noted as being present or absent.

skin above the upper lip = experiment: Cooling sensation on facial skin, ointment applied to skin above the upper lip; assay type: in vivo, human; parameters: key to refreshing cooling and absence of skin irritation or eye irritation (“perfect cool”): (*) denotes compounds with refreshing cooling and absence of skin irritation or eye irritation after facial skin or periorbital applications; a “perfect cool.”; conditions: for Duration of Skin Cooling: 40 mM (1% wt/vol) ointment; for Duration of Skin Cooling / Duration of Action On-Off (minutes): On (onset) / Duration of Action On-Off (minutes): duration (offset minus onset) / Duration of Action On-Off (minutes): Off (offset): skin above upper lip; for Duration of Action On-Off (minutes): On (onset): 40 mM (~1% wt/vol) Aquaphor ointment, 40 to 70 mg, time to reach 2 units of coolness; for Duration of Action On-Off (minutes): duration (offset minus onset) / Duration of Action On-Off (minutes): Off (offset): 40 mM Aquaphor ointment; for Duration of Action On-Off (minutes): Off (offset): time when coolness drops below 2 units
Description: A reliable place for topical application is the skin above the upper lip (above the vermilion border of the lips), on the philtrum, lateral to the philtrum until the nasolabial folds, and on the lower nostrils (subnasale). This part of the face is known to be densely innervated with cold receptors, second only to the surfaces of the eyeball and anogenitalia. A second location is on or below the malar eminence (cheekbone). The skin above the cheekbone is thicker than above the lips, and therefore has a higher threshold for activation. At both loci, tingling, cool and cold sensations in the skin may be experienced and rated for time of onset and intensity.
The intensity of the subjective skin sensation is rated as 0, 1, 2 or 3 with: 0 as no change; 1 as slight coolness, cold, or tingling; 2 as clear-cut signal of coolness, cold, or tingling; and 3 as robust cooling or cold. The intervals for recording sensations are 5 to 10 minutes, until two successive zeroes are obtained. The results (shown in FIGS. 1 and 2) are averaged values of 4 to 6 separate trials in the same individual. The data are plotted using SigmaPlot® (Systat Software, Point Richmond Calif.) and a smoothing function with a negative exponential was used for analysis and statistical fit of the results. Confirmatory trials of cooling action of the long-acting NACE compounds were obtained in 2 to 4 individuals but not quantified for some because of the large number of chemicals that were evaluated.
(§1) The onset of drug action is taken as the time to reach 2 units of coolness intensity, and offset of drug action is the time when coolness intensity drops below 2, after previously surpassing 2 units. The duration of cooling action is defined as the offset time minus the onset time. […] The quality of the sensation is noted, for example, as pure refreshing coolness, or if the sensation is accompanied by irritation (stinging or burning). The quality of the sensation is not rated for intensity.
For bioassay on the skin, approximately 30 mg was stirred and dissolved in 3 g of warm liquid Aquaphor® ointment to a yield a 40 mM (˜1% wt/vol) ointment. The exact amount was adjusted so that the molar equivalent was about 35 to 40 mM. After cooling, 40 to 70 mg of the solid ointment was placed on the tip of a plastic stick and applied to the skin above the upper lip, on the philtrum, and lateral to the philtrum, up to the nasolabial folds, of test subjects and the onset and duration of cooling sensations noted.
The intensity of the subjective skin sensation was rated as 0, 1, 2 or 3 with: 0 as no change; 1 as slight coolness, cold, or tingling; 2 as clear signal of coolness, cold, or tingling; and 3 as robust cooling or cold. The intervals for recording sensations were 5 to 10 minutes, until two successive zeroes were obtained. The results (shown in FIGS. 1 and 2) are averaged values of 4 to 6 separate trials in the same individual. The data are plotted using SigmaPlot® (Systat Software, Point Richmond, Calif., USA) and a smoothing function with a negative exponential was used for analysis and statistical fit of the results.
as §1, with “was” for “is”, “was also noted: such” for “is noted, for example,”
Test compounds were singly applied to the skin above the upper lips at a 40 to 70 mg dose of a 1% wt/vol ointment.

[2] = Octanol/water partition coefficient; assay type: physicochemical
Method: The octanol/water partition coefficients (given in log P units) for a number of compounds were determined and are shown in Table 7, together with the threshold for cooling on the tongue tested at 40 mM. […] A longer duration of action was not precisely matched with log P values.

TRP-M8 = molecular target: T1, TRP-M8 (Homo sapiens, UniProt Q7Z2W7); conditions: cited from earlier work
T1 construct: expressed in transfected cells
T1 sequence (Q7Z2W7 whole entry, species assumed): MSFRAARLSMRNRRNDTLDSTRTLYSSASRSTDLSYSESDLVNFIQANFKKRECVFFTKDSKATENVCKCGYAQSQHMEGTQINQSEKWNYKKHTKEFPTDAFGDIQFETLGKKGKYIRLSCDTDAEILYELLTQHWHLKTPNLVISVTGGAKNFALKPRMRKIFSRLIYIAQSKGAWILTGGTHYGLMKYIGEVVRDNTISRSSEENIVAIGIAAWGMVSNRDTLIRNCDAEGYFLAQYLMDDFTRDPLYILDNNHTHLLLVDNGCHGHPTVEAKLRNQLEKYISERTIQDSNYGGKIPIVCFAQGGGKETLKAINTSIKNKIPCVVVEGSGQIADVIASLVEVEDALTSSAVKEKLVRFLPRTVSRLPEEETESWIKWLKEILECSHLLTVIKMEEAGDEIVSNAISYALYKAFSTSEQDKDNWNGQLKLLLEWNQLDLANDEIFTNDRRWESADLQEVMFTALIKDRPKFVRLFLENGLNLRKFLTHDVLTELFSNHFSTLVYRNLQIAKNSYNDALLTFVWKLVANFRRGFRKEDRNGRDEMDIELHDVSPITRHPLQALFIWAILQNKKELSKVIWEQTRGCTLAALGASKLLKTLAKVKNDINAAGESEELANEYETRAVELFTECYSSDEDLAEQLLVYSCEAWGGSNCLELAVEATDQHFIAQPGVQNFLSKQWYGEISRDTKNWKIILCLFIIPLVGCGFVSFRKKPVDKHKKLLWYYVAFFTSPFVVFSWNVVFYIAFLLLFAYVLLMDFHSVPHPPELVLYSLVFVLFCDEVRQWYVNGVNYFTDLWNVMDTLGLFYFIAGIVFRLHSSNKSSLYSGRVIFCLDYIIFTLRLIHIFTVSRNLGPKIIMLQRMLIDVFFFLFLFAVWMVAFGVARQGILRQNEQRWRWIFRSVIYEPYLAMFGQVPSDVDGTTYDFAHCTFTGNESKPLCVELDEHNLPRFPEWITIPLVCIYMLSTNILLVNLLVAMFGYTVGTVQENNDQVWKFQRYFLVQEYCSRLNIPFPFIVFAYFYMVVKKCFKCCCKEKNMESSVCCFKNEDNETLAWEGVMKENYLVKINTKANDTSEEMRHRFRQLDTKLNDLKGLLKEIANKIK

tongue [3] = experiment: Threshold for cooling on the tongue; assay type: in vivo, human; conditions: threshold for cooling on the tongue
Method: Watson et al. (U.S. Pat. No. 4,178,459) tested the properties of N-substituted p-menthane carboxamides on volunteers by putting filter paper (1×1 cm), impregnated with a known amount of compound, onto the dorsal surface of the tongue of the test subject. After 30 seconds, the subject was required to report presence or absence of a cooling effect. […] The average threshold of (−)-menthol for 6 subjects was 0.25 μg, but there was a 100-fold variation in individual sensitivity. As noted above, coolness signals detected from the dorsal surface of the tongue may be confounded by gustatory, olfactory, and other variables, as well as by dilution from saliva. The octanol/water partition coefficients (given in log P units) for a number of compounds were determined and are shown in Table 7, together with the threshold for cooling on the tongue tested at 40 mM. […] A longer duration of action was not precisely matched with log P values.

asthma = experiment: Study 10: adult-onset asthma, throat irritation and cough; assay type: in vivo, human
Method: A person had adult-onset asthma for 20 years. Triggers for attacks were tobacco smoke, dust, and changes in air temperature. They used Foradil® (formoterol fumarate) and Asmanex® (mometasone fuorate) twice a day to control their asthma, and monitored their pulmonary function with a portable device for measuring peak expiratory flow. They had daily episodes of both productive and non-productive cough. In 5 trials, when they felt throat irritation and a desire to cough, placement of 1 to 3 mg of (R)-2-[((1R,2S,5R)-2-isopropyl-5-methyl-cyclohexanecarbonyl)-amino]-propionic acid ethyl ester) provided rapid relief and was described as soothing and removed “tightness” in the chest. Peak expiratory flow improved from 320 L/min to 370 L/min. In 3 episodes where the test substance was administered in the midst of a productive cough spell, no significant effects were observed and the subject said that the applied compound had been expectorated. The subjective response to the long-acting NACE compound was definitely favourable. The subject remarked that the best time to use the NACE compound was after inhaling the crystalline Foradil® because this inhaled drug irritated their throat. Menthol lozenges were not effective for their airway discomfort because they only had mild anti-irritant actions and the sugar content of the lozenges interfered with their appetite for food.

cough = experiment: Study 8: cough in cigar smokers, powder on the tongue; assay type: in vivo, human
Description: Two males, were inveterate cigar smokers consuming 3 to 5 cigars per day. They both had frequent bouts of dry, non-productive, hacking coughs. At night, there were episodes of insomnia characterized by difficulties in breathing, an oppressive pressure on the chest and throat, and subsequent awakening with sensations of choking. During the day, a frequent and persistent sensation was that of tickling, irritative feelings in the back of the throat that led to coughing.
In 20 trials, 10 trials per subject, two mg of 95%+pure powder of a D-Ala ethyl compound falling within Formula (1) (R)-2-[((1R,2S,5R)-2-isopropyl-5-methyl-cyclohexanecarbonyl)-amino]-propionic acid ethyl ester) was placed on the mid-portion of the tongue of these two subjects. Both subjects reported relief from the desire to cough within 1 minute after application. Sensations of robust coolness in the back of the throat was noted and lasted for about 30 minutes. Applications of similar amounts of powdered sugar were not effective, but the placebo could be clearly distinguished from the active compound because of the absence of cooling sensations.
After application of test substance, the absence of irritation and itching at the back of the throat (cough signals) lasted for about 4 to 5 hours and the individual was observed not to cough for 6 to 8 hours. […] This therapeutic effect occurred when the test substance no longer elicited cooling sensations in the oropharynx.

asthma cough = experiment: Study 9: asthmatic cough, powder on the tongue; assay type: in vivo, human; conditions: continued use
Description: A person with a documented 31-year history of asthma attacks volunteered to test one of the compounds falling within Formula (1). They were extremely sensitive to agents such as tobacco smoke, dust, pollen, odors, down/woolen materials, house cleansing products, pets, and sudden change of air temperature, and reacted with violent coughing, mucus secretions, wheezing, choking, and shortness of breath. At the time of this trial, they were taking these medications for their condition: theophylline, Allegra®, Advair®, Intal®, and Singulair®. In 5 trials, during a coughing spree, they placed one to two mg of 95%+ pure powder of a D-Ala ethyl ester falling within Formula (1) ((R)-2-[((1R,2S,5R)-2-isopropyl-5-methyl-cyclohexanecarbonyl)-amino]-propionic acid ethyl ester)) on the mid-portion of their tongue. They reported a soothing and cool sensation with a slight taste similar to Eucalyptus oil in their mouth and throat. Coughing stopped after 3 to 5 minutes and breathing was normal. […] In three trials when the compound was applied at night, they slept through the night without being awakened by cough. Their spouse remarked that, in over 30 years of marriage, this was the first time that they had seen an effective medication for their cough. […]

Structure (SMILES): CC(C)[C@@H]1CC[C@@H](C)C[C@H]1O [(−)-menthol, 1R-(1α-2β-5α)-5-methyl-2-(1-methylethyl)cyclohexanol, reference compound]
average threshold for cooling on the tongue (tongue [1]): 0.25 µg | Cooling on tongue (oral cavity; Table 1 summary): yes | Eye Irritancy (periorbital skin): yes | Duration of Skin Cooling (skin above the upper lip): 0.3 h | Acts for >1 hour at 40 mM (skin above the upper lip; Table 1 summary): no | Cooling on skin of face (skin above the upper lip; Table 1 summary): yes | “perfect” cooling experience (skin above the upper lip; Table 1 summary): no

logP [2]: 5.3
Structure (SMILES): COc1ccc(NC(=O)C2CC(C)CCC2C(C)C)cc1 (stereo not shown) [WS-12, N-p-methoxyphenyl-p-menthane-carboxamide, reference compound]
potency at TRP-M8 (TRP-M8): more potent at TRP-M8 than WS-5; also recorded: potent | Threshold tongue (tongue [3]): 0.2 µg | Duration of Action On-Off (minutes): On (onset) (skin above the upper lip): 13 min | Duration of Action On-Off (minutes): duration (offset minus onset) (skin above the upper lip): 25 min | Duration of Action On-Off (minutes): Off (offset) (skin above the upper lip): 38 min

Structure (SMILES): CCOC(=O)[C@@H](C)NC(=O)[C@@H]1C[C@H](C)CC[C@H]1C(C)C [(R)-2-[((1R,2S,5R)-2-isopropyl-5-methyl-cyclohexanecarbonyl)-amino]-propionic acid ethyl ester]
Peak expiratory flow (asthma; 1 to 3 mg, improved from 320 L/min): 370 L/min | relief of throat irritation, desire to cough and airway discomfort (asthma; asthmatic): rapid relief

Structure (SMILES): CCOC(=O)[C@@H](C)NC(=O)[C@@H]1C[C@H](C)CC[C@H]1C(C)C [D-Ala Et Ester, (R)-2-[((1R,2S,5R)-2-isopropyl-5-methyl-cyclohexanecarbonyl)-amino]-propionic acid ethyl ester]
time the desire to cough was removed (cough; after 4 or 6 applications within 2 days, continued smoking): at least 5 days | duration of robust coolness in the back of the throat (cough; two mg powder on tongue): about 30 minutes | time to relief from the desire to cough (cough; two mg powder on tongue, 20 trials in 2 subjects): ≤ 1 min | duration of cooling sensations on the tongue (oral cavity; dose of 1 to 2 mg, normal subjects): about 30 minutes | recurrence of asthmatic coughing attacks (asthma cough): have not recurred with any severity for one month | Duration of Skin Cooling (skin above the upper lip): 2.4 h | Duration of Action On-Off (minutes): On (onset) (skin above the upper lip): 1 min | Duration of Action On-Off (minutes): duration (offset minus onset) (skin above the upper lip): 142 min | Duration of Action On-Off (minutes): Off (offset) (skin above the upper lip): 143 min | refreshing cooling and absence of skin irritation or eye irritation (“perfect cool”) (skin above the upper lip; after facial skin or periorbital applications): D-Ala Et Ester (*)
